Calls of active or inactive are those of the source.
Experiments:
Cytochrome P450 3A4 = Cytochrome P450 3A4 (Homo sapiens, UniProt P08684); settings: Potency;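 also: confirmatory qHTS run detecting inhibitors and substrates of CYP3A4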
[1] = MC4R antagonists, dose response, counter-screen for LGR2 antagonist project, cell-based, plate reader, cherry pick (AID 743444); format: functional;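 also: transfected HEK 293 cells stimulated with alpha-MSH peptide; potency of inhibitors of the alpha-MSH evoked signal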
[2] = HepG2 cell cytotoxicity, dose response, cytotoxicity control, plate reader, cherry-pick, antagonist series (AID 743416); format: functional, cell-based
[3] = HEK293 cell cytotoxicity, dose response, cytotoxicity control, plate reader, cherry-picked samples (AID 743446); format: functional, cell-based
[4] = A549 cell cytotoxicity, dose response, cytotoxicity control, plate reader, cherry-pick, antagonist series (AID 743412); format: functional, cell-based
[5] = LGR2 antagonists, dose response, cell-based, HEK293, CRE-luciferase reporter, cherry pick, set 2 (AID 743343); format: functional;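 also: transfected cells were stimulated with diluted bursicon conditioned medium after compound addition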
P388/ADR = assay: cells; format: functional; settings: Mus musculus
SN12K1 = assay: cells; format: functional; settings: Homo sapiens
P388 = assay: cells; format: functional; settings: Mus musculus
Large T antigen = Large T antigen (Simian virus 40, UniProt P03070); format: functional, Betapolyomavirus macacae;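 also: Confirmatory-stage PubChem screen for compounds that inhibit SV40 T antigen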
[6] = target: T1, Ubiquitin-conjugating enzyme E2 N (Homo sapiens, UniProt P61088); format: functional;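 also: Dose-response confirmation in a TR-FRET assay detecting UBC13-driven polyubiquitin chain formation, inhibition measured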
T1 sequence (P61088 whole entry): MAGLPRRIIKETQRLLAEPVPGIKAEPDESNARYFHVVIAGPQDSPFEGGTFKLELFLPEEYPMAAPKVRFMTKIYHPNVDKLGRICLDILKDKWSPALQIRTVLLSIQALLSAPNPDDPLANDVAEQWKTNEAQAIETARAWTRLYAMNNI

[7] = P. falciparum Dd2 growth inhibitors, dose response, SYBR Green, cherry-picked samples (AID 1159567); format: functional, cell-based
Protein RecA = target: T2, Protein RecA (Mycobacterium tuberculosis, UniProt P9WHJ3); assay: Fluorescence Cell-Free Homogeneous Dose Retest to Identify Inhibitors of RecA-Intein Splicing Activity. [Related pubchem assays (depositor defined):AID2097, AID2223, AID489010, AID492950]; format: functional
T2 sequence (P9WHJ3 whole entry): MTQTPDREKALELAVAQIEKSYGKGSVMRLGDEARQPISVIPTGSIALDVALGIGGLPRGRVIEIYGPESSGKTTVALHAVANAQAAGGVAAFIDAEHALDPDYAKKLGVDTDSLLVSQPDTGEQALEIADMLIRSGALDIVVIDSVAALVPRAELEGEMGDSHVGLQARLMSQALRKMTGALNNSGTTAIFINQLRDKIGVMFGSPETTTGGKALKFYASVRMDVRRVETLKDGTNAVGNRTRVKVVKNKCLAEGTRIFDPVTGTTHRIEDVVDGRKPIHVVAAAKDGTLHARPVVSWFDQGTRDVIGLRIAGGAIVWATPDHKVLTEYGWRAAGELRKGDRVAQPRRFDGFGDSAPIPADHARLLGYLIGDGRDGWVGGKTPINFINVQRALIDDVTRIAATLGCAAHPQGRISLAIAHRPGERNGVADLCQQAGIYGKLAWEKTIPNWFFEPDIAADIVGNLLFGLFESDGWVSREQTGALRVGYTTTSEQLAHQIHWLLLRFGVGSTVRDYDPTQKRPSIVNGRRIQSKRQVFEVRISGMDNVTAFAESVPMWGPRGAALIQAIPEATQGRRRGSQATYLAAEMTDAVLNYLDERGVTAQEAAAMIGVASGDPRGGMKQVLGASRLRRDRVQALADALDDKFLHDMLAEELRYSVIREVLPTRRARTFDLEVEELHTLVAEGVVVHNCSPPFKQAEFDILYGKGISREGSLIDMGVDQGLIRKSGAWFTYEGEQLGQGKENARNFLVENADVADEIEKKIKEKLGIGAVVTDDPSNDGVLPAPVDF

[8] = target: T3, Replicative DNA helicase DnaB (Mycobacterium tuberculosis, UniProt P9WMR3); assay: DnaB intein splicing inhibitors, dose response, biochemical, cell-free fluorescence (AID 449749); format: functional
T3 sequence (P9WMR3 whole entry): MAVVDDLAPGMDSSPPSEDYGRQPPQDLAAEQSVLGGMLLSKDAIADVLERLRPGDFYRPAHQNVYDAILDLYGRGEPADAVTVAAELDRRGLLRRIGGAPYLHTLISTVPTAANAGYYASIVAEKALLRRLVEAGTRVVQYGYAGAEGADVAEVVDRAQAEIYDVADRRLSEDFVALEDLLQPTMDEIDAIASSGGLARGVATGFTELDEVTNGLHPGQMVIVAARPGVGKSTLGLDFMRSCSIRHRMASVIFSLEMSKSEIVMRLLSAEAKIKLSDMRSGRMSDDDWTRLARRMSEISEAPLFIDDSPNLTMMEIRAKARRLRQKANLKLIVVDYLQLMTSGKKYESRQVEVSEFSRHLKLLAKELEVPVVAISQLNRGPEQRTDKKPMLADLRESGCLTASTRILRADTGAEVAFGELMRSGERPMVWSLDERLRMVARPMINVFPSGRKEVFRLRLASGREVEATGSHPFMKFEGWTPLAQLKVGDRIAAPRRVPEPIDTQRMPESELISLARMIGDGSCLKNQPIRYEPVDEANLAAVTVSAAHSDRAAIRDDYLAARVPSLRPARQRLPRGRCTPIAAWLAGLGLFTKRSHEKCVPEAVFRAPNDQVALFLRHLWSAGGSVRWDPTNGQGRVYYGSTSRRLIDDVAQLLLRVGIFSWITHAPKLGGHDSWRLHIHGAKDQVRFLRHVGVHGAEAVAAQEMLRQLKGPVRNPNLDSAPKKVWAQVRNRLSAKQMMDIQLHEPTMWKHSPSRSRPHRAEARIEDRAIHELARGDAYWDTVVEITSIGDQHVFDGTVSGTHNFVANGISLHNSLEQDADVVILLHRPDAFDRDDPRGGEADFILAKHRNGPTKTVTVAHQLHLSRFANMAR

[9] = inhibitors of intracellular T. cruzi replication, confirmation, NIH3T3 host cells, beta-gal luminescence (AID 2044); format: functional, cell-based;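 also: intracellular parasites grown in NIH/3T3 mouse fibroblasts as host cells; luminescent beta-galactosidase reporter signal from transgenic T. cruzi replicating inside host cells; inhibitors lower the luminescence signal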
INS1 = assay: beta cell apoptosis inhibitors, cytokine rescue, dose response, luminescence, retest (AID 449756); format: functional, cell-based; settings: Rattus norvegicus;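 also: cell death triggered by IL-1 beta plus TNF-alpha plus IFN-gamma mixture; protective hits raise ATP signal compared with cytokine alone wells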
[10] = Luminescence Cell-Based Dose Retest to Confirm Inhibitors of Cancer Stem Cells. [Related pubchem assays (depositor defined):AID2717, AID2721]; format: functional; settings: Homo sapiens
[11] = cytotoxicity toward NIH3T3 fibroblasts, dose response, counter-screen, cell-based, ATP luminescence, mouse fibroblasts (AID 2010); format: functional;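 also: cells exposed to compound for about 90 hours before reading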
[12] = target: T4, Heat shock factor protein 1 (Mus musculus, UniProt P38532); assay: HSF1 potentiators in luciferase reporter cells, confirmation, cell-based, NIH3T3, luminescence, dose retest (AID 435004); format: functional;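 also: stress induced by proteasome inhibitor MG132 added 30 min after compound; luciferase reporter driven by HSF1 response element in NIH3T3 cells; actives raise luminescence as potentiators of the MG132 stress response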
T4 sequence (P38532 whole entry): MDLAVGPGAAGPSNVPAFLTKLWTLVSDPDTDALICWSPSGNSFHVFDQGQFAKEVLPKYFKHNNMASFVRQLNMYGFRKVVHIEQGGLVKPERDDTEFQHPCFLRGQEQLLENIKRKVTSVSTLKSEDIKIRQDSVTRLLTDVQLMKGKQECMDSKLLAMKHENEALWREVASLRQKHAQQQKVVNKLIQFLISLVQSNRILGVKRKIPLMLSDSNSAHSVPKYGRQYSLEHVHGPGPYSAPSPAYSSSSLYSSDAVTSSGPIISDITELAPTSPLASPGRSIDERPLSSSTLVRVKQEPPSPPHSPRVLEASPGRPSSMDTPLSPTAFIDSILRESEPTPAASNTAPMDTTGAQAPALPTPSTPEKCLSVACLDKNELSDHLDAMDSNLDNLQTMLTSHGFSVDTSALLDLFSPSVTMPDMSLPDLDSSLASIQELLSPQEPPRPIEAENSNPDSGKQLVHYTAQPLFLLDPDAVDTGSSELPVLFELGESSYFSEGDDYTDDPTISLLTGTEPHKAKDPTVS

Sequence of Large T antigen (P03070 whole entry): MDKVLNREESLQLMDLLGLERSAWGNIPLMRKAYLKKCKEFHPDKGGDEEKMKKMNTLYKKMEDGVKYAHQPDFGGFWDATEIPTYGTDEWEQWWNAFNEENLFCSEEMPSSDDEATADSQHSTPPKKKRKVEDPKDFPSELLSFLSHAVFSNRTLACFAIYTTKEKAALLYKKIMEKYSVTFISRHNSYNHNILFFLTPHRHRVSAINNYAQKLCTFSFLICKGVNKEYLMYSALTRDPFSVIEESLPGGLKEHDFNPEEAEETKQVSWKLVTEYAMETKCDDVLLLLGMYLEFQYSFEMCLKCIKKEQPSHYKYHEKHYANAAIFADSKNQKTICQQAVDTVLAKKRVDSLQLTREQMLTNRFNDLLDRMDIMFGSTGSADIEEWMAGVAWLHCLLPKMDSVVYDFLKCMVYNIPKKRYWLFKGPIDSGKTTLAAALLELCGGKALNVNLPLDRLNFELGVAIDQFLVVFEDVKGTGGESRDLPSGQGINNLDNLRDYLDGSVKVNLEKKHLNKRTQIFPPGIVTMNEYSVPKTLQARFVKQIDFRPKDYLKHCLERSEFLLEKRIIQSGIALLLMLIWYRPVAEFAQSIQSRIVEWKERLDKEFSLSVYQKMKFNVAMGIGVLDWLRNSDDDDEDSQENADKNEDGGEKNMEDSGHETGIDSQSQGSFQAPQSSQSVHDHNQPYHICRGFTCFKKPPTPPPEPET
Sequence of Cytochrome P450 3A4 (P08684 whole entry): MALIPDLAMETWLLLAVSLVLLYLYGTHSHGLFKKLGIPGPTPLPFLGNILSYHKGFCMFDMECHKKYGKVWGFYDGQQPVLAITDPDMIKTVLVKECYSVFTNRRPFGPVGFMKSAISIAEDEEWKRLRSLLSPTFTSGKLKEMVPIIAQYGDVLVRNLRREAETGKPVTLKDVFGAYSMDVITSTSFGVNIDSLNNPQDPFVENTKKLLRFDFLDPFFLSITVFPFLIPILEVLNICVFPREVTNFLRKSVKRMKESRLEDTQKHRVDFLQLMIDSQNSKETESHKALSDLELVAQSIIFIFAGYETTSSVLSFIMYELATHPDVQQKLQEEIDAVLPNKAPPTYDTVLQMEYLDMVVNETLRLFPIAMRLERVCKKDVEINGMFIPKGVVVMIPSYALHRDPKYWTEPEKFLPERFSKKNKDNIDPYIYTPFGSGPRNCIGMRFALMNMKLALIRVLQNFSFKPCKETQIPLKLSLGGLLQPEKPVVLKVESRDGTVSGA

Compound: CCCCCCN(C(=O)CCCCCN1C(=O)NC(c2ccc(-c3ccccc3)cc2)C(C(=O)OCc2ccccc2)=C1C)C(C(=O)NCCCC)c1ccc(OCC(=O)O)c(C(=O)O)c1 (stereo not given)
- AC50 (Cytochrome P450 3A4): 15.8 µM (inconclusive)

Compound: Cc1ccccc1OCCCN1CCC(C(O)(c2ccccc2)c2ccccc2)CC1
- AC50 [1]: 18.5 µM (active)
- AC50 [2]: 22.6 µM (active)
- AC50 [3]: 16.1 µM (active)
- AC50 [4]: 25.7 µM (active)
- AC50 [5]: 19.9 µM (active)

Compound: COC(=O)[C@@]12OC[C@]34[C@H]([C@@H](O)[C@@H]1O)[C@@]1(C)CC(=O)C(O)=C(C)[C@@H]1C[C@H]3OC(=O)[C@H](OC(=O)/C=C(\C)C(C)C)[C@@H]24 [BRUCEANTIN]
- GI50 (P388/ADR): 0.0244 µM (active)
- GI50 (SN12K1): 0.02 µM (active)
- GI50 (P388): 0.021 µM (active)

Compound: CSC[S+]([O-])C[C@H](CO)NC(=O)/C=C/c1c(C)[nH]c(=O)[nH]c1=O (stereo not given in full)
- GI50 (P388/ADR): 1 µM (active)
- GI50 (SN12K1): 1.31 µM (inactive)
- GI50 (P388): 0.416 µM (active)

Compound: Cc1occc1C(=O)N/N=C/C=C/c1ccc(N(C)C)cc1
- IC50 (Large T antigen): 19.7 µM (active)

Compound: NC(c1ccccc1)c1csc(NC(=O)Nc2cccc(Cl)c2)n1 (stereo not given)
- AC50 [1]: 36.7 µM (active)
- AC50 [2]: 16.3 µM (active)
- AC50 [3]: 50.9 µM (active)
- AC50 [4]: 21.1 µM (active)
- AC50 [5]: 28.8 µM (active)

Compound: CCN1CCN(S(=O)(=O)c2ccc(Cl)c(C(=O)N(C)Cc3cccs3)c2)CC1
- IC50 [6]: > 20 µM (inactive)

Compound: CC(=O)N1CC=CC1(CC(C)C)C(=O)NCc1ccc(C)o1 (stereo not given)
- AC50 (Cytochrome P450 3A4): 15.8 µM (inconclusive)

Compound: CC(C)NC(=O)N1[C@H](CO)[C@@H](c2ccccc2)C12CN(Cc1ccc(Cl)cc1)C2
- AC50 [7]: 4.74 µM (active)

Compound: COc1ccc(N2CCN(C(=O)NC3CC(=O)N(c4ccc(OC)cc4)C3)CC2)cc1 (stereo not given)
- IC50 (Large T antigen): 43.3 µM (active)

Compound: CCCCNc1nc(C)nc2c1nc(-c1ccccc1)n2CCCCN(CC)CC
- AC50 (Cytochrome P450 3A4): 12.6 µM (inconclusive)

Compound: Nc1ccc(O)cc1 [4-AMINOPHENOL]
- EC50 (Protein RecA): > 380 µM (inconclusive)
- AC50 (Cytochrome P450 3A4): 25.1 µM (inconclusive)
- AC50 [8]: > 380 µM (inactive)

Compound: O=C(O)/C=C/C(=O)N1C/C(=C\c2ccccc2)C(=O)/C(=C/c2ccccc2)C1
- GI50 (P388/ADR): 13.8 µM (inactive)
- GI50 (SN12K1): 1.82 µM (inactive)
- GI50 (P388): 11.9 µM (inactive)

Compound: O=C(CCN1CCCCC1)C(=Cc1ccccc1)C(=O)CCN1CCCCC1
- GI50 (P388/ADR): 25.9 µM (inactive)
- GI50 (SN12K1): 52.4 µM (inactive)
- GI50 (P388): 15.6 µM (inactive)

Compound: O=C(NC(NC(=S)Nc1ccccc1)C(Cl)(Cl)Cl)c1cccc(Cl)c1 (stereo not given)
- EC50 [9]: 2.31 µM (active)
- AC50 (INS1): 8.54 µM (active)
- AC50 [10]: 4.73 µM (active)
- EC50 [11]: > 60 µM (not active)

Compound: C=CC(C1=CC(=O)C(OC)=CC1=O)c1ccc(O)cc1 (stereo not given) [DALBERGIONE, 4-METHOXY-4'-HYDROXY-]
- AC50 (Cytochrome P450 3A4): 25.1 µM (inconclusive)

Compound: Cc1ccc(C(C(=O)NCC2CCCO2)N(C(=O)c2snc(C(N)=O)c2N)c2ccccc2F)o1 (stereo not given)
- IC50 [6]: > 20 µM (inactive)

Compound: CN(C)CCNC(=O)c1cccc2c(=O)c3ccccc3oc12
- GI50 (P388/ADR): 28 µM (inactive)
- GI50 (SN12K1): 19.7 µM (inactive)
- GI50 (P388): 15 µM (inactive)

Compound: CCCCN1Cc2c(nc3cc(-c4ccco4)nn3c2O)C1=O
- IC50 (Large T antigen): 35.6 µM (active)

Compound: Cc1cc(O)c2c(=O)c3c(O)cc(O)c4c5c(O)cc(O)c6c(=O)c7c(O)cc(C)c8c1c2c(c34)c(c78)c65 [HYPERICIN]
- GI50 (P388/ADR): 49.2 µM (inactive)
- GI50 (SN12K1): 92.7 µM (inactive)
- GI50 (P388): 11.9 µM (inactive)

Compound: CC1(C)C(=O)C2C[C@]3(O)C4=CC(=O)OC(c5ccoc5)[C@]4(C)CCC3[C@](C)(C2=O)C1CC(=O)O (stereo not given in full)
- AC50 (Cytochrome P450 3A4): 25.1 µM (inconclusive)

Compound: CCCCCOc1ccc(/C=N\c2ccc(CCc3ccc(/N=C/c4ccc(OCCCCC)cc4)cc3)cc2)cc1
- GI50 (SN12K1): > 100 µM (inactive)
- GI50 (P388): > 100 µM (inactive)

Compound: O=c1c2cc(Br)ccc2[nH]c(=S)n1-c1ccccc1
- IC50 [6]: > 20 µM (inactive)

Compound: COc1ccc(-c2cc(C(F)(F)F)nc(S(=O)(=O)CCCC(=O)Nc3cccc(O)c3)n2)cc1OC
- AC50 [2]: 12.7 µM (active)
- AC50 [3]: 10.5 µM (active)
- EC50 (Protein RecA): 11.3 µM (active)
- AC50 [4]: 24.2 µM (active)
- AC50 [5]: 11.8 µM (active)
- AC50 [8]: 162 µM (active)
- EC50 [12]: 7.17 µM (active)

Compound: C=C(C)C(=O)/N=C(\N)NC#N
- GI50 (P388/ADR): 10.4 µM (inactive)
- GI50 (SN12K1): 26.4 µM (inactive)
- GI50 (P388): 3.72 µM (inactive)

Compound: COC(=O)[C@@]1(C)C=C[C@@H](Cc2ccccc2)N1C(C)=O
- AC50 (Cytochrome P450 3A4): 31.6 µM (inconclusive)

Compound: CO[C@@H]1CN(C)C(=O)c2cc(NC(=O)c3nc4ccccc4s3)ccc2OC[C@@H](C)N(Cc2ccccc2)C[C@H]1C
- AC50 [7]: 3.99 µM (active)

Compound: COc1cc(C2c3cc4c(cc3[C@@H](Nc3ccccc3)C3COC(=O)[C@H]23)OCO4)cc(OC)c1O (stereo not given in full)
- GI50 (P388/ADR): 0.0344 µM (active)
- GI50 (SN12K1): < 0.0164 µM (active)
- GI50 (P388): < 0.01 µM (active)

Compound: CCn1c(=O)cc(C(F)(F)F)[nH]c1=S
- IC50 [6]: > 20 µM (inactive)
